Reference: US10351594B2, “Process for preparing compounds having triple activities of thrombolysis, antithrombosis, and radical scavenging” (Shanghai Lumosa Therapeutics Co., Ltd., priority 2013, dated 2019)
Where two headings read alike, the source gives them in different places.

System: stroke rats
[1] = 2.5 μmol/kg 5Ak after 6 hours from stroke onset, 1st day
[2] = 2.5 μmol/kg 5Ak after 6 hours from stroke onset, 2nd day
[3] = 2.5 μmol/kg 5Ak after 6 hours from stroke onset, 3rd day
[4] = 2.5 μmol/kg 5Ak after 6 hours from stroke onset, 4th day
[5] = 2.5 μmol/kg 5Ak after 6 hours from stroke onset, 5th day
[6] = 2.5 μmol/kg 5Ak after 6 hours from stroke onset, 6th day
[7] = 2.5 μmol/kg 5Ak after 24 hours from stroke onset, 1st day
[8] = 2.5 μmol/kg 5Ak after 24 hours from stroke onset, 2nd day
[9] = 2.5 μmol/kg 5Ak after 24 hours from stroke onset, 3rd day
[10] = 2.5 μmol/kg 5Ak after 24 hours from stroke onset, 4th day
[11] = 2.5 μmol/kg 5Ak after 24 hours from stroke onset, 5th day
[12] = 2.5 μmol/kg 5Ak after 24 hours from stroke onset, 6th day
[13] = 5 μmol/kg 5Ak after 24 hours from stroke onset, 1st day
[14] = 5 μmol/kg 5Ak after 24 hours from stroke onset, 2nd day
[15] = 5 μmol/kg 5Ak after 24 hours from stroke onset, 3rd day
[16] = 5 μmol/kg 5Ak after 24 hours from stroke onset, 4th day
[17] = 5 μmol/kg 5Ak after 24 hours from stroke onset, 5th day
[18] = 5 μmol/kg 5Ak after 24 hours from stroke onset, 6th day
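Further: male SD rats with thrombus-induced cerebral embolism via internal carotid artery, scored daily by Zealonga neurological deficit scale (0 no deficit to 5 death), lower score better.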

Procedure: The therapeutic effect was evaluated by neurological functional scores. The lower the score was, the better the therapeutic effect was. A 10% chloral hydrate solution was injected intraperitoneally into male SD rats at a dosage of 400 mg/kg body weight for anesthesia. A longitudinal incision was made at the center of the neck, and the right common carotid artery trunk was separated (about 3 cm in length). External carotid artery branches were each separated and ligated at the hyoid level, and the internal carotid artery was separated from the swollen part of the neck. The incision of the internal carotid artery and the proximal end of the common carotid artery were clipped respectively with noninvasive arterial clips, and the distal end of the external carotid artery was ligated. A catheter containing 0.5 mL thrombus suspension in normal saline was inserted in the external carotid artery trunk. When the clip on the internal carotid artery was released, the 0.5 mL thrombus suspension in normal saline in the catheter slowly flew from the external carotid artery to its proximal end, and then was injected into the arteries in brain through the internal carotid artery. Subsequently, the proximal end of the internal carotid artery was ligated, the arterial clips on the internal carotid artery and the common carotid artery were released, and blood flow was restored. After the wound was stitched up, 20,000 IU penicillin was intramuscularly injected for prevention from infection. […] Self-comparison was performed each day, and the neurological deficit degree was evaluated by the Zealonga method. A score of 0 indicated no sign of loss in neural function, 1 indicated the front limbs on the undamaged side could not stretch out, 2 indicated walking toward the undamaged side, 3 indicated tail-chasing walking in circles toward the undamaged side, 4 indicated involuntary walking with disturbance of consciousness, and 5 indicated death.

## C[C@H](NC(=O)[C@@H]1CCCN1)C(=O)N[C@@H](CCCCN)C(=O)NCCCC[C@H](NC(=O)[C@@H]1Cc2cc(O)c(O)cc2C(C)(C)N1)C(=O)O [Compound 5Ak, 3S-6,7-dihydroxy-1,1-dimethyl-1,2,3,4-tetrahydro-isoquinoline-3-acyl-Lys(Pro-Ala-Lys)]
2.5 μmol/kg 5Ak after 6 hours from stroke onset
  therapeutic effect, result in words: better therapeutic effect than 1 μmol/kg 5Ak
[1]
  Daily neural function scores, number of rats under 0 score: 1
  Daily neural function scores, number of rats under 1 score: 7
  Daily neural function scores, number of rats under 2 scores: 0
  Daily neural function scores, number of rats under 3 scores: 1
  Daily neural function scores, number of rats under 4 scores: 0
  Daily neural function scores, number of rats under 5 scores: 0
[2]
  Daily neural function scores, number of rats under 0 score: 3
  Daily neural function scores, number of rats under 1 score: 4
  Daily neural function scores, number of rats under 2 scores: 2
  Daily neural function scores, number of rats under 3 scores: 0
  Daily neural function scores, number of rats under 4 scores: 0
  Daily neural function scores, number of rats under 5 scores: 0
[3]
  Daily neural function scores, number of rats under 0 score: 6
  Daily neural function scores, number of rats under 1 score: 2
  Daily neural function scores, number of rats under 2 scores: 1
  Daily neural function scores, number of rats under 3 scores: 0
  Daily neural function scores, number of rats under 4 scores: 0
  Daily neural function scores, number of rats under 5 scores: 0
[4]
  Daily neural function scores, number of rats under 0 score: 6
  Daily neural function scores, number of rats under 1 score: 3
  Daily neural function scores, number of rats under 2 scores: 0
  Daily neural function scores, number of rats under 3 scores: 0
  Daily neural function scores, number of rats under 4 scores: 0
  Daily neural function scores, number of rats under 5 scores: 0
[5]
  Daily neural function scores, number of rats under 0 score: 5
  Daily neural function scores, number of rats under 1 score: 4
  Daily neural function scores, number of rats under 2 scores: 0
  Daily neural function scores, number of rats under 3 scores: 0
  Daily neural function scores, number of rats under 4 scores: 0
  Daily neural function scores, number of rats under 5 scores: 0
[6]
  Daily neural function scores, number of rats under 0 score: 7
  Daily neural function scores, number of rats under 1 score: 2
  Daily neural function scores, number of rats under 2 scores: 0
  Daily neural function scores, number of rats under 3 scores: 0
  Daily neural function scores, number of rats under 4 scores: 0
  Daily neural function scores, number of rats under 5 scores: 0
2.5 μmol/kg 5Ak after 24 hours from stroke onset
  therapeutic effect, result in words: certain therapeutic effect
[7]
  Daily neural function scores, number of rats under 0 score: 1
  Daily neural function scores, number of rats under 1 score: 4
  Daily neural function scores, number of rats under 2 scores: 1
  Daily neural function scores, number of rats under 3 scores: 0
  Daily neural function scores, number of rats under 4 scores: 1
  Daily neural function scores, number of rats under 5 scores: 0
[8]
  Daily neural function scores, number of rats under 0 score: 3
  Daily neural function scores, number of rats under 1 score: 2
  Daily neural function scores, number of rats under 2 scores: 1
  Daily neural function scores, number of rats under 3 scores: 1
  Daily neural function scores, number of rats under 4 scores: 0
  Daily neural function scores, number of rats under 5 scores: 0
[9]
  Daily neural function scores, number of rats under 0 score: 3
  Daily neural function scores, number of rats under 1 score: 2
  Daily neural function scores, number of rats under 2 scores: 1
  Daily neural function scores, number of rats under 3 scores: 0
  Daily neural function scores, number of rats under 4 scores: 0
  Daily neural function scores, number of rats under 5 scores: 1
[10]
  Daily neural function scores, number of rats under 0 score: 2
  Daily neural function scores, number of rats under 1 score: 2
  Daily neural function scores, number of rats under 2 scores: 1
  Daily neural function scores, number of rats under 3 scores: 1
  Daily neural function scores, number of rats under 4 scores: 0
  Daily neural function scores, number of rats under 5 scores: 0
[11]
  Daily neural function scores, number of rats under 0 score: 4
  Daily neural function scores, number of rats under 1 score: 0
  Daily neural function scores, number of rats under 2 scores: 1
  Daily neural function scores, number of rats under 3 scores: 0
  Daily neural function scores, number of rats under 4 scores: 0
  Daily neural function scores, number of rats under 5 scores: 1
[12]
  Daily neural function scores, number of rats under 0 score: 3
  Daily neural function scores, number of rats under 1 score: 1
  Daily neural function scores, number of rats under 2 scores: 1
  Daily neural function scores, number of rats under 3 scores: 0
  Daily neural function scores, number of rats under 4 scores: 0
  Daily neural function scores, number of rats under 5 scores: 0
2.5 μmol/kg 5Ak once per day after 6 hours from stroke onset, nine rats
  rats that died during successive 6-day treatment: no death occurred
2.5 μmol/kg 5Ak once per day after 24 hours from stroke onset, seven rats
  rats that died during successive 6-day treatment: two
5 μmol/kg 5Ak after 24 hours from stroke onset
  therapeutic effect, result in words: definite therapeutic effect
[13]
  Daily neural function scores, number of rats under 0 score: 0
  Daily neural function scores, number of rats under 1 score: 5
  Daily neural function scores, number of rats under 2 scores: 4
  Daily neural function scores, number of rats under 3 scores: 0
  Daily neural function scores, number of rats under 4 scores: 1
  Daily neural function scores, number of rats under 5 scores: 0
[14]
  Daily neural function scores, number of rats under 0 score: 2
  Daily neural function scores, number of rats under 1 score: 6
  Daily neural function scores, number of rats under 2 scores: 2
  Daily neural function scores, number of rats under 3 scores: 0
  Daily neural function scores, number of rats under 4 scores: 0
  Daily neural function scores, number of rats under 5 scores: 0
[15]
  Daily neural function scores, number of rats under 0 score: 2
  Daily neural function scores, number of rats under 1 score: 6
  Daily neural function scores, number of rats under 2 scores: 2
  Daily neural function scores, number of rats under 3 scores: 0
  Daily neural function scores, number of rats under 4 scores: 0
  Daily neural function scores, number of rats under 5 scores: 0
[16]
  Daily neural function scores, number of rats under 0 score: 5
  Daily neural function scores, number of rats under 1 score: 5
  Daily neural function scores, number of rats under 2 scores: 0
  Daily neural function scores, number of rats under 3 scores: 0
  Daily neural function scores, number of rats under 4 scores: 0
  Daily neural function scores, number of rats under 5 scores: 0
[17]
  Daily neural function scores, number of rats under 0 score: 6
  Daily neural function scores, number of rats under 1 score: 4
  Daily neural function scores, number of rats under 2 scores: 0
  Daily neural function scores, number of rats under 3 scores: 0
  Daily neural function scores, number of rats under 4 scores: 0
  Daily neural function scores, number of rats under 5 scores: 0
[18]
  Daily neural function scores, number of rats under 0 score: 7
  Daily neural function scores, number of rats under 1 score: 3
  Daily neural function scores, number of rats under 2 scores: 0
  Daily neural function scores, number of rats under 3 scores: 0
  Daily neural function scores, number of rats under 4 scores: 0
  Daily neural function scores, number of rats under 5 scores: 0
5 μmol/kg 5Ak once per day after 24 hours from stroke onset, ten rats
  rats that died during successive 6-day treatment: no death occurred
